From ChEMBL document CHEMBL1201862, “PubChem BioAssay data set” (2004) come the findings set out here.

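Five compound concentrations were applied to cells in 96-well plates for 48 hours; endpoints were derived by simple linear interpolation of the resulting dose-response curve. GI50 is the concentration that inhibits growth by half.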 Active and inactive are the calls of the source. Rule as the data show it: active = GI50 up to about 1.1 µM and inactive = higher.

Among the test systems are A498; ACHN; CAKI-1; HCC 2998; HCT-116; K562; NCI-H226; NCI-H23; RPMI-8226; SF-539; SK-MEL-5; SN12C; SW-620; TK-10; UO-31; COLO 205; NCI-H522.
Holding throughout (assay): NCI-60 cell line screen, 48 h

Regarding `C/C(CCn1[nH]c(=O)ccc1=O)=N\O`, the GI50 with A498, in the test on ACHN, in the test on CAKI-1, in the test on HCC 2998, with HCT-116 and in the test with K562 was > 100 µM (inactive) each time. For the same molecule, the GI50 in the test on NCI-H226, with NCI-H23, in the test with RPMI-8226, with SF-539, with SK-MEL-5 and with SN12C was > 100 µM (inactive) throughout. Moreover, the GI50 in the test with SW-620, in the test with TK-10 and in the test with UO-31 was > 100 µM (inactive) in each case.

For `COc1c(C)cc2c(c1O)C1C3[C@H]4SC[C@@]5(NCCC6=C5NC5C=CC=CC65)C(=O)OCC(c5c6c(c(C)c(OC(C)=O)c54)OCO6)N3[C@@H](O)C(C2)N1C` (some centres undefined), the GI50 in the test on A498, in the test on ACHN, with COLO 205, with HCC 2998, in the test on HCT-116 and in the test with K562 was < 0.01 µM (active) each time. The GI50 in the test with NCI-H226 was 0.0112 µM (active); in the test with NCI-H23 it was < 0.01 µM (active); with RPMI-8226 it was < 0.01 µM (active); with SF-539 it was < 0.01 µM (active); with SK-MEL-5 it was < 0.01 µM (active); in the test with SN12C, < 0.01 µM (active). The GI50 with SW-620, with TK-10 and in the test with UO-31 was < 0.01 µM (active) in each case.

Consider `COCC1C(=O)c2cc3c(cc2C12C=CC1(C=C2)OCCO1)OCO3` (centres undefined), for which the GI50 was 12.7 µM (inactive) in the test with ACHN; 15.9 µM (inactive) in the test on CAKI-1; 10.3 µM (inactive) with COLO 205; 2.21 µM (inactive) in the test on HCT-116; 2 µM (inactive) in the test on K562; 10.9 µM (inactive) with NCI-H226. Moreover, the GI50 in the test with NCI-H23 is 12.5 µM (inactive); with NCI-H522 it was 1.63 µM (inactive); in the test with RPMI-8226 it was 1.43 µM (inactive); in the test on SF-539, 15.6 µM (inactive); in the test on SK-MEL-5, > 10 µM (inactive); with SN12C it was 10.9 µM (inactive). The GI50 in the test on SW-620 is 2.48 µM (inactive); in the test with TK-10 it was 20.6 µM (inactive).

Take `C[C@@H](NC1CCC[C@@H]1O)c1ccccc1` (some centres undefined): the GI50 in the test on ACHN, with CAKI-1, in the test with COLO 205, with HCC 2998, with HCT-116 and in the test on K562 was > 100 µM (inactive) throughout. Besides, the GI50 in the test with NCI-H226, with RPMI-8226, in the test with SK-MEL-5, in the test on SN12C, with SW-620 and with TK-10 was > 100 µM (inactive) throughout. For the same molecule, in the test on UO-31, the GI50 is > 100 µM (inactive).

As to `CCOC1=NC(=O)CC(c2ccccc2)S1` (centres undefined), the GI50 in the test on A498, in the test with ACHN, in the test with CAKI-1, in the test on COLO 205, in the test on HCC 2998 and with HCT-116 was > 100 µM (inactive) each time. For the same molecule, the GI50 was > 100 µM (inactive) in the test with K562; 27.8 µM (inactive) in the test with NCI-H226; > 100 µM (inactive) in the test on RPMI-8226; > 100 µM (inactive) in the test with SF-539; > 100 µM (inactive) in the test with SK-MEL-5; > 100 µM (inactive) in the test on SN12C. For the same molecule, the GI50 in the test on SW-620 and in the test with UO-31 was > 100 µM (inactive) in each case.

As for `CC(=O)Oc1ccc(O)c(O)c1C/C=C(\C)CC/C=C(\C)CC/C=C(\C)CCC=C(C)C` [TETRAPRENYLPHENOLSUILLIN], the GI50 was 0.275 µM (active) in the test on ACHN; 2.65 µM (inactive) with CAKI-1; 0.157 µM (active) with COLO 205; 0.871 µM (active) with HCC 2998; 0.287 µM (active) in the test with HCT-116; 0.692 µM (active) in the test with NCI-H226. Moreover, the GI50 is 0.429 µM (active) in the test with NCI-H23; 1.51 µM (inactive) with NCI-H522; 0.407 µM (active) in the test on SF-539; 0.272 µM (active) in the test with SN12C; 0.3 µM (active) with SW-620; 1.32 µM (inactive) in the test with TK-10. Further, the GI50 with UO-31 is 1.42 µM (inactive).

Turning to `CCOC(=O)Nc1ccc(S(=O)(=O)OC)cc1.CCOC(=O)Nc1ccc(S(=O)(=O)OC)cc1.Nc1ncnc2c1ncn2C1OC(CO)C(O)C1O` (centres undefined), the GI50 in the test with A498 is > 100 µM (inactive); in the test on ACHN, > 100 µM (inactive); in the test on CAKI-1, > 100 µM (inactive); in the test with COLO 205, 49 µM (inactive); in the test on HCC 2998 it was > 100 µM (inactive); in the test on HCT-116 it was 17.5 µM (inactive). Besides, the GI50 was 23 µM (inactive) with K562; > 100 µM (inactive) with NCI-H226; > 100 µM (inactive) in the test on NCI-H23; 21.6 µM (inactive) with RPMI-8226; > 100 µM (inactive) in the test on SF-539; > 100 µM (inactive) in the test on SK-MEL-5. Further, the GI50 in the test with SN12C is > 100 µM (inactive); in the test with SW-620 it was 18.2 µM (inactive); in the test on TK-10, > 100 µM (inactive); in the test on UO-31, > 100 µM (inactive).

With `COC(=O)/C(=N\Nc1nc(S)nn1N)C(C#N)c1ccc(Cl)cc1` (centres undefined), the GI50 in the test with A498, with ACHN, in the test on CAKI-1, in the test with COLO 205, in the test with HCC 2998 and in the test on HCT-116 was > 100 µM (inactive) each time. Moreover, the GI50 in the test with NCI-H226, with NCI-H23, in the test with RPMI-8226, in the test with SF-539, in the test with SN12C and in the test on SW-620 was > 100 µM (inactive) each time. In addition, the GI50 in the test with TK-10 and in the test with UO-31 was > 100 µM (inactive) throughout.

With `Cc1cc(C)nc(NS(=O)(=O)c2ccc(Nc3c4ccccc4nc4c(C(=O)NCCN(C)C)ccc(Cl)c34)cc2)n1`, the GI50 with ACHN is 2.02 µM (inactive); with COLO 205, 1.06 µM (active); in the test on HCC 2998, 13.8 µM (inactive); in the test on HCT-116 it was 0.798 µM (active); in the test with K562 it was 1.14 µM (inactive); in the test on NCI-H226, 0.7 µM (active). Further, the GI50 with NCI-H23 is 2.43 µM (inactive); in the test on NCI-H522, 1.24 µM (inactive); with SF-539, 2.36 µM (inactive); with SK-MEL-5 it was 4.38 µM (inactive); in the test on SN12C it was 1.45 µM (inactive); with SW-620, 0.679 µM (active). Further, the GI50 with TK-10 was 5.07 µM (inactive); in the test on UO-31, 1.71 µM (inactive).

For `COCN1COCN(C)C1=O`, the GI50 with A498, with ACHN, in the test on CAKI-1, in the test on COLO 205, with HCC 2998 and in the test on HCT-116 was > 100 µM (inactive) in each case. Besides, the GI50 with K562, in the test with NCI-H226, in the test with NCI-H23, in the test with RPMI-8226, in the test with SF-539 and with SK-MEL-5 was > 100 µM (inactive) in each case. The GI50 with SN12C, in the test on SW-620, with TK-10 and in the test with UO-31 was > 100 µM (inactive) each time.

For the molecule `NC1=NS(=O)(=O)Nc2nc(-c3ccc([N+](=O)[O-])cc3)[nH]c21`, the GI50 with ACHN, in the test on CAKI-1, in the test with COLO 205, in the test on HCC 2998, in the test on HCT-116 and in the test on K562 was > 100 µM (inactive) each time. The GI50 in the test with NCI-H23, in the test with NCI-H522, in the test on RPMI-8226, in the test on SF-539, with SK-MEL-5 and in the test on SN12C was > 100 µM (inactive) in each case. In addition, the GI50 in the test with SW-620, with TK-10 and with UO-31 was > 100 µM (inactive) throughout.

Turning to `CCCCCCCCCC(=O)NC(Cc1ccc(O)cc1)C(=O)NCCCNCCCCNCCCNC(=O)[C@@H](N)CCCN=C(N)N` (some centres undefined), the GI50 was 18.9 µM (inactive) in the test on ACHN; 13.8 µM (inactive) in the test with COLO 205; 27.7 µM (inactive) with HCC 2998; > 100 µM (inactive) with HCT-116; 29.9 µM (inactive) in the test with K562; 61.2 µM (inactive) in the test with NCI-H226. For the same molecule, the GI50 is 57.7 µM (inactive) in the test with NCI-H23; 28.8 µM (inactive) in the test on NCI-H522; 64.9 µM (inactive) with RPMI-8226; 11 µM (inactive) with SF-539; 12.8 µM (inactive) with SK-MEL-5; 60.7 µM (inactive) in the test on SN12C. The GI50 in the test with SW-620 was > 100 µM (inactive); with TK-10, 46.9 µM (inactive); with UO-31, 31.9 µM (inactive).

As for `CC(C)[C@@H]1C=C(c2ccccc2)c2ccccc2C1C(C#N)(C#N)C(C)C` (some centres undefined), the GI50 with A498 is > 100 µM (inactive); in the test with ACHN, > 100 µM (inactive); with COLO 205, > 100 µM (inactive); with HCC 2998, 90.4 µM (inactive); in the test on HCT-116, 32.9 µM (inactive); in the test on K562, 38.2 µM (inactive). In addition, the GI50 in the test with NCI-H226 was > 100 µM (inactive); with NCI-H23, 76 µM (inactive); in the test on RPMI-8226, 19 µM (inactive); in the test with SF-539, > 100 µM (inactive); in the test on SK-MEL-5 it was 39.7 µM (inactive); in the test with SN12C, > 100 µM (inactive). Besides, the GI50 in the test on SW-620, in the test with TK-10 and in the test with UO-31 was > 100 µM (inactive) in each case.
